Source: US5053070A, “Pyrimidine derivatives, preparation processes thereof, herbicide containing the same, and herbicidal compositions containing the same along with other active ingredient” (Mitsui Toatsu Chemicals, Incorporated, priority 1988, dated 1991)
Converted amounts (≈) assume the structure as drawn.

Experiments:
Assay type in all cases: in vivo
narrowleaf waterplantain = assay: Petri dish test (Test 6); settings: 336 h; seeds on filter paper, 25° C., 14 days; read-out: I80 (ppm)
Protocol: A filter paper was placed in each glass-made Petri dish having a diameter of 9 cm. A compound dissolved in acetone was added in a predetermined amount. The filter paper was then dried in air to remove acetone. Seeds of narrowleaf waterplantain were placed on the filter paper and 10 ml of water were poured into the Petri dish. The seeds were allowed to grow at 25° C. in a bright room. Fourteen days later, the state of growth of narrowleaf water-plantain was observed.
In the table, the degree of damages of the test plant was determined by comparing the state of growth of the plant with that of the plant in an untreated group and is shown in accordance with the following standard: […]

rice [1] = assay: Treatment of soil under submerged condition, post-emergence (Test 5), injury; settings: 30 g ai/a granule, 30 days later
Protocol: (§1) 1/5000-are Wagner pots were filled with soil. Seeds or tubers of barnyardgrass, Monochoria vaginalis, bulrush, Sagittaria pygmaea, Cyperus serroylnus and Eleocharis kuroguwai were seeded or planted under submerged condition. Two pairs of rice seedlings (2-3 leaf stage), which had been reared in advance, were transplanted to each pot and were allowed to grow in a green house. Each pair consisted of two rice seedlings. When the barnyardgrass grew to two-leaf stage, each pot was treated with a granule which had been prepared by processing a predetermined amount of the test composition in accordance with a similar method to the method described in Formulation Example 9. The state of emergence of weeds and the state of injury of rice were observed 30 days later.
(§2) In the table, the degrees of damages of the test plants and the degrees of injury of the rice are shown in a similar manner to Example 2.

rice [2] = assay: Treatment of soil under submerged condition, pre-emergence (Test 4), injury; settings: 30 g ai/a granule, 30 days later
Protocol: as §1, with “seroylnus” for “serroylnus”, “germinate” for “grow”, “One day later (before emergence of weeds),” for “When the barnyardgrass grew to two-leaf stage,”
(§3) In the table, the degrees of damages of the test plants and the degrees of injury of rice are shown in a similar manner to Example 2.

barnyardgrass [3] = assay: Treatment of soil under submerged condition, pre-emergence (Test 4); settings: 30 g ai/a granule, 30 days later
Protocol: as §1, with “seroylnus” for “serroylnus”, “germinate” for “grow”, “One day later (before emergence of weeds),” for “When the barnyardgrass grew to two-leaf stage,”
as §3

Sagittaria pygmaea [4] = assay: as above; settings: 30 g ai/a granule, 30 days later
Protocol: as §1, with “seroylnus” for “serroylnus”, “germinate” for “grow”, “One day later (before emergence of weeds),” for “When the barnyardgrass grew to two-leaf stage,”
as §3

bulrush [5] = assay: as above; settings: 30 g ai/a granule, 30 days later
Protocol: as §1, with “seroylnus” for “serroylnus”, “germinate” for “grow”, “One day later (before emergence of weeds),” for “When the barnyardgrass grew to two-leaf stage,”
as §3

barnyardgrass [6] = assay: Treatment of soil under submerged condition, post-emergence (Test 5); settings: 30 g ai/a granule, post-emergence (barnyardgrass two-leaf stage), 30 days later
Protocol: as §1, §2

Sagittaria pygmaea [7] = assay: as above; settings: 30 g ai/a granule, 30 days later
Protocol: as §1, §2

bulrush [8] = assay: as above; settings: 30 g ai/a granule, 30 days later
Protocol: as §1, §2

barnyardgrass [9] = assay: Upland foliar application test (Test 3); settings: 30 g ai/a, foliar spray at 2-3 leaves, 30th day
Protocol: (§4) Resin-made 1/10000-are pots were filled with the soil of an upland field. Redroot pigweed, common lambsquarters, foxtail meadow, johnsongrass, barnyardgrass, green foxtail, large crabgrass, soybean, peanut and cotton were separately seeded and were allowed to germinate in a green house. When each plant grew to the stage of 2-3 leaves, an emulsion formulated from a predetermined amount of each test compound in a similar manner to the method described in Formulation Example 11 was diluted with water to a predetermined dilution rate and then sprayed at an application rate equal to 5 l per are onto the foliage of each plant by means of a pressure-operated ULV (ultra low volume) sprayer. Influence to the crops and weeds were observed on the 30th day after the spray of the herbicides. The results are shown in Table 4 in which the degree of damages of each test plant and the degree of injury to each crop are shown in a similar manner to Test 2.

redroot pigweed = assay: Upland foliar application test (Test 3); settings: 30 g ai/a, foliar spray at 2-3 leaves, 30th day
Protocol: as §4

common lambsquarters = assay: Upland foliar application test (Test 3); settings: 30 g ai/a, foliar spray at 2-3 leaves, 30th day
Protocol: as §4

foxtail meadow = assay: Upland foliar application test (Test 3); settings: 30 g ai/a, foliar spray at 2-3 leaves, 30th day
Protocol: as §4

green foxtail = assay: Upland foliar application test (Test 3); settings: 30 g ai/a, foliar spray at 2-3 leaves, 30th day
Protocol: as §4

johnsongrass = assay: Upland foliar application test (Test 3); settings: 30 g ai/a, foliar spray at 2-3 leaves, 30th day
Protocol: as §4

large crabgrass = assay: Upland foliar application test (Test 3); settings: 30 g ai/a, foliar spray at 2-3 leaves, 30th day
Protocol: as §4

soybean = assay: Upland foliar application test (Test 3), crop injury; settings: 30 g ai/a, foliar spray at 2-3 leaves, 30th day
Protocol: as §4

peanut = assay: as above; settings: 30 g ai/a, foliar spray at 2-3 leaves, 30th day
Protocol: as §4

cotton = assay: as above; settings: 30 g ai/a, foliar spray at 2-3 leaves, 30th day
Protocol: as §4

SMILES | IC80 (narrowleaf waterplantain) [µg/mL] | Injury Rice (rice [1]) | Injury Rice (rice [2]) | Herbicidal effects Barnyardgrass (barnyardgrass [3]) | Herbicidal effects Sagittaria Pygmaea (Sagittaria pygmaea [4]) | Herbicidal effects Bulrush (bulrush [5]) | Herbicidal effects Barnyardgrass (barnyardgrass [6]) | Herbicidal effects Sagittaria Pygmaea (Sagittaria pygmaea [7]) | Herbicidal effects Bulrush (bulrush [8]) | Herbicidal effects Barnyardgrass (barnyardgrass [9]) | Herbicidal effects Redroot pigweed (redroot pigweed) | Herbicidal effects Common lambsquarters (common lambsquarters) | Herbicidal effects Foxtail meadow (foxtail meadow) | Herbicidal effects Green foxtail (green foxtail) | Herbicidal effects Johnsongrass (johnsongrass) | Herbicidal effects Large crabgrass (large crabgrass) | Injury Soybean (soybean) | Injury Peanut (peanut) | Injury Cotton (cotton)
C=C(Cl)CON=Cc1ccccc1Oc1nc(OC)cc(OC)n1 [Compound No. 14] | 100 (≈ 286 µM) | 1 (71-90 (Slight damages)) | 0 (91-100 (No damages)) | 5 (0-5 (Death)) | 5 (0-5 (Death)) | 3 (11-40 (Medium damages)) | 5 (0-5 (Death)) | 4 (6-10 (Severe damages)) | 5 (0-5 (Death)) | 5 (0-5 (Death)) | 4 (6-10 (Severe damages)) | 4 (6-10 (Severe damages)) | 5 (0-5 (Death)) | 5 (0-5 (Death)) | 5 (0-5 (Death)) | 5 (0-5 (Death)) | 0 (91-100 (No damages)) | 0 (91-100 (No damages)) | 0 (91-100 (No damages))
COc1cc(OC)nc(Oc2ccccc2C=NOCc2ccccc2)n1 [Compound No. 15] | 100 (≈ 274 µM) | 1 (71-90 (Slight damages)) | 1 (71-90 (Slight damages)) | 4 (6-10 (Severe damages)) | 3 (11-40 (Medium damages)) | 1 (71-90 (Slight damages)) | 5 (0-5 (Death)) | 3 (11-40 (Medium damages)) | 4 (6-10 (Severe damages)) | 5 (0-5 (Death)) | 5 (0-5 (Death)) | 5 (0-5 (Death)) | 4 (6-10 (Severe damages)) | 5 (0-5 (Death)) | 5 (0-5 (Death)) | 4 (6-10 (Severe damages)) | 0 (91-100 (No damages)) | 0 (91-100 (No damages)) | 0 (91-100 (No damages))
COc1cc(OC)nc(Oc2ccccc2C=NOCc2ccc(Cl)cc2Cl)n1 [Compound No. 17] | 100 (≈ 230 µM) | 0 (91-100 (No damages)) | 0 (91-100 (No damages)) | 4 (6-10 (Severe damages)) | 3 (11-40 (Medium damages)) | 4 (6-10 (Severe damages)) | 3 (11-40 (Medium damages)) | 3 (11-40 (Medium damages)) | 4 (6-10 (Severe damages)) | 3 (11-40 (Medium damages)) | 4 (6-10 (Severe damages)) | 4 (6-10 (Severe damages)) | 3 (11-40 (Medium damages)) | 5 (0-5 (Death)) | 5 (0-5 (Death)) | 3 (11-40 (Medium damages)) | 0 (91-100 (No damages)) | 0 (91-100 (No damages)) | 0 (91-100 (No damages))
COc1cc(OC)nc(Oc2ccccc2C=NO)n1 [Compound No. 24, 2-(4,6-dimethoxy-2-pyrimidinyloxy)-benzaloxime] | 100 (≈ 363 µM) | 1 (71-90 (Slight damages)) | 1 (71-90 (Slight damages)) | 3 (11-40 (Medium damages)) | 4 (6-10 (Severe damages)) | 2 (41-70 (Small damages)) | 5 (0-5 (Death)) | 4 (6-10 (Severe damages)) | 5 (0-5 (Death)) | 4 (6-10 (Severe damages)) | 3 (11-40 (Medium damages)) | 3 (11-40 (Medium damages)) | 4 (6-10 (Severe damages)) | 4 (6-10 (Severe damages)) | 5 (0-5 (Death)) | 4 (6-10 (Severe damages)) | 1 (71-90 (Slight damages)) | 0 (91-100 (No damages)) | 1 (71-90 (Slight damages))
COc1cc(OC)nc(Oc2ccccc2C=NOCC=Cc2cccc(Cl)c2)n1 [Compound No. 26, 0-(3-chlorocinnamyl)-2-(4,6-dimethoxy-2-pyrimidinyloxy)benzaldxime] | 2 (≈ 4.7 µM) | 0 (91-100 (No damages)) | 0 (91-100 (No damages)) | 4 (6-10 (Severe damages)) | 5 (0-5 (Death)) | 4 (6-10 (Severe damages)) | 5 (0-5 (Death)) | 4 (6-10 (Severe damages)) | 4 (6-10 (Severe damages)) | 5 (0-5 (Death)) | 4 (6-10 (Severe damages)) | 4 (6-10 (Severe damages)) | 4 (6-10 (Severe damages)) | 5 (0-5 (Death)) | 5 (0-5 (Death)) | 5 (0-5 (Death)) | 0 (91-100 (No damages)) | 0 (91-100 (No damages)) | 0 (91-100 (No damages))
COc1cc(OC)nc(Oc2ccccc2C=NOCC=Cc2ccccc2Cl)n1 [Compound No. 27] | 2 (≈ 4.7 µM) | 0 (91-100 (No damages)) | 0 (91-100 (No damages)) | 5 (0-5 (Death)) | 4 (6-10 (Severe damages)) | 4 (6-10 (Severe damages)) | 5 (0-5 (Death)) | 4 (6-10 (Severe damages)) | 4 (6-10 (Severe damages)) | 4 (6-10 (Severe damages)) | 5 (0-5 (Death)) | 4 (6-10 (Severe damages)) | 5 (0-5 (Death)) | 5 (0-5 (Death)) | 5 (0-5 (Death)) | 5 (0-5 (Death)) | 0 (91-100 (No damages)) | 0 (91-100 (No damages)) | 0 (91-100 (No damages))
